One experiment deals with T1, human LXRα (Homo sapiens, UniProt Q13133).
T1 construct: biotin (biotinylated); made in house; host or cells: E. coli (crude extract)
T1 sequence (Q13133 1-447): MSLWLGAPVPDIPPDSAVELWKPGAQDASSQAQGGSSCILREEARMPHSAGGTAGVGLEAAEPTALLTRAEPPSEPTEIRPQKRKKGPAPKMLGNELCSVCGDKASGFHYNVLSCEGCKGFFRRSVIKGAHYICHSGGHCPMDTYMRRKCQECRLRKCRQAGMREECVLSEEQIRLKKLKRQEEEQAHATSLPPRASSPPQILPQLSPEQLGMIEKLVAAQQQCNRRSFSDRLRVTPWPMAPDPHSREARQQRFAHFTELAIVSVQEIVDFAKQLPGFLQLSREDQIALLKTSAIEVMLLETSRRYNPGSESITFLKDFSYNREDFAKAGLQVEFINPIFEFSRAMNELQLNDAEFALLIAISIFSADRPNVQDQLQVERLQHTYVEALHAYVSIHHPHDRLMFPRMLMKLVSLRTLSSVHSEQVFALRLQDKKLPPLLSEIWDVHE
In words: Ligand-binding test procedure for human LXRα (3H T0901317 tracer, flash plates). The note with it: biotinylated hLXRα, tracer 3H T0901317. On the procedure: Receptor source: E. coli extract from cells expressing biotinylated hLXRcc. Extract was made in a similar buffer as above, but with 50 mM TRIS.
Washed streptavidin and coated flash plates with wash buffer. Diluted receptor extract to give Bmax ˜4000 cpm and add to the wells. Wrapped the plates in aluminum foil and stored them at +4° C. over night.
(§1) Made a dilution series in DMSO of the test ligands. Made a 5 nM solution of the radioactive tracer in buffer. Mixed 250 μl diluted tracer with 5 μl of the test ligand from each concentration of the dilution series. Washed the receptor-coated flash plates. Added 200 μl per well of the ligand/radiolabel mixture to the receptor-coated flash plates. Wrapped the plates in aluminum foil and incubate at +4° C. over night.
Aspirated wells, and wash the flashed plates. Sealed the plate. Measured the remaining radioactivity in the plate.

Another experiment addresses T2, human LXRβ (Homo sapiens, UniProt P55055).
T2 construct: biotin (biotinylated); made in house; host or cells: E. coli (crude extract)
T2 sequence (P55055 1-460): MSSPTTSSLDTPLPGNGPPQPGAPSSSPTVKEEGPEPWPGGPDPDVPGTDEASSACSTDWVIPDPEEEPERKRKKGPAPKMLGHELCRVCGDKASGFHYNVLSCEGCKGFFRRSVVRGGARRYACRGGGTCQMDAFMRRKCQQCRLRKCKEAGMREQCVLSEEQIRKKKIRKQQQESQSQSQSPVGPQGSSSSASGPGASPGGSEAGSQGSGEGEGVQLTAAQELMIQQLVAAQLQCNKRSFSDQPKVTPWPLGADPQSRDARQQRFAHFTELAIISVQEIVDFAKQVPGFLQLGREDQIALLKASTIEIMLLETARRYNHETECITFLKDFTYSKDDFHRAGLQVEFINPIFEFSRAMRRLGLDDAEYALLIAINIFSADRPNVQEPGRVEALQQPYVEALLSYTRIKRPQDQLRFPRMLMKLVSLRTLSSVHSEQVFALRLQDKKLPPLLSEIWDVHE
In words: Ligand-binding test procedure for human LXRβ (3H T0901317 tracer, flash plates). On the procedure:
Receptor source: E. coli extracted from cells expressing biotinylated hLXRβ. Extract was made in a similar buffer as above, but with 50 mM TRIS.
Washed streptavidin and coated flash plates with wash buffer. Diluted receptor extract to give Bmax ˜4000 cpm and add to the wells. Wrapped the plates in aluminum foil and stored them at +4° C. overnight.
as §1
Aspirated wells, and washed the flashed plates. Sealed the plate. Measured the remaining radioactivity in the plate.

Take `CCc1nc2c(C(F)(F)F)cccc2n1-c1ccc(OCc2cccc(S(C)(=O)=O)c2)cc1` [Example 85, 2-ethyl-1-(4-{[3-(methylsulfonyl)benzyl]oxy}phenyl)-4-(trifluoromethyl)-1H-benzimidazole]: the IC50 on human LXRα was determined as 5070 nM; on human LXRβ, 1890 nM.
On the same counts, the results for `CS(=O)(=O)c1cccc(COc2ccc(-n3c(C(F)(F)F)nc4c(C(F)(F)F)cccc43)cc2)c1` [Example 86, 1-(4-{[3-(methylsulfonyl)benzyl]oxy}phenyl)-2,4-bis(trifluoromethyl)-1H-benzimidazole] are greater than 1000 nM and greater than 1000 nM.
On the same counts, the results for `Cc1nc2c(C(F)(F)F)cccc2n1-c1ccc(OCc2cccc(S(C)(=O)=O)c2)cc1` [Example 87, 2-methyl-1(4-{[3-(methylsulfonyl)benzyl]oxy}phenyl)-4-(trifluoromethyl)-1H-benzimidazole] are greater than 1000 nM and greater than 1000 nM.
Consider `CCc1nc2c(C(F)(F)F)cccc2n1-c1ccc(Oc2ccc(C#N)c(S(C)(=O)=O)c2)cc1` [Example 88, 4-{4-[2-ethyl-4-(trifluoromethyl)-1H-benzimidazol-1-yl]phenoxy}-2-(methylsulfonyl)benzonitrile], for which the half-maximal inhibitory concentration (IC50) was 15100 nM at human LXRα and 1920 nM at human LXRβ.
On the same counts, the results for `Cc1cc(Oc2cccc(S(C)(=O)=O)c2)ccc1-n1cnc2c(C(F)(F)F)cccc21` [Example 90, 1-{2-methyl-4-[3-(methylsulfonyl)phenoxy]phenyl}-4-(trifluoromethyl)-1H-benzimidazole] are 6530 nM and 802 nM.
The corresponding values for `CCS(=O)(=O)c1cccc(Oc2ccc(-n3cnc4c(C(F)(F)F)cccc43)c(C)c2)c1` [Example 91, 1-{4-[3-(ethylsulfonyl)phenoxy]-2-methylphenyl}-4-(trifluoromethyl)-1H-benzimidazole] are 6110 nM and 634 nM.
The corresponding values for `Cc1cc(Oc2cccc(S(=O)(=O)C(C)C)c2)ccc1-n1cnc2c(C(F)(F)F)cccc21` [Example 92, 1-(2-methyl-4-{3-[(1-methylethyl)sulfonyl]phenoxy}phenyl)-4-(trifluoromethyl)-1H-benzimidazole] are 3260 nM and 348 nM.
Take `Cc1cc(Oc2cccc(S(C)(=O)=O)c2)ccc1-n1c(C)nc2c(C(F)(F)F)cccc21` [Example 93, 2-methyl-1-{2-methyl-4-[3-(methylsulfonyl)phenoxy]phenyl}-4-(trifluoromethyl)-1H-benzimidazole]: the IC50 came out at 2780 nM at human LXRα and 191 nM at human LXRβ.
With `CCS(=O)(=O)c1cccc(Oc2ccc(-n3c(C)nc4c(C(F)(F)F)cccc43)c(C)c2)c1` [Example 94], the results for the IC50 on human LXRα and on human LXRβ were 2100 nM and 122 nM, respectively.
Take `Cc1cc(Oc2cc(F)cc(S(C)(=O)=O)c2)ccc1-n1cnc2c(C(F)(F)F)cccc21` [Example 96, 1-{4-[3-fluoro-5-(methylsulfonyl)phenoxy]-2-methylphenyl}-4-(trifluoromethyl)-1H-benzimidazole]: the values for the IC50 at human LXRα and on human LXRβ were 16000 nM and 2620 nM, respectively.
On the same counts, the results for `CCS(=O)(=O)c1cc(F)cc(Oc2ccc(-n3cnc4c(C(F)(F)F)cccc43)c(C)c2)c1` [Example 97, 1-{4-[3-(ethylsulfonyl)-5-fluorophenoxy]-2-methylphenyl}-4-(trifluoromethyl)-1H-benzimidazole] are 8000 nM and 1110 nM.
On the same counts, the results for `Cc1cc(Oc2ccc(S(C)(=O)=O)cc2)ccc1-n1cnc2c(C(F)(F)F)cccc21` [Example 98, 1-{2-methyl-4-[4-(methylsulfonyl)phenoxy]phenyl}-4-(trifluoromethyl)-1H-benzimidazole] are 5200 nM and 581 nM.
Take `CCS(=O)(=O)c1cc(F)cc(Oc2ccc(-n3c(C)nc4c(C(F)(F)F)cccc43)c(C)c2)c1` [Example 99]: the half-inhibitory concentration (IC50) on human LXRα was found to be 3690 nM; on human LXRβ, 301 nM.
On the same counts, the results for `Cc1cc(Oc2ccc(S(C)(=O)=O)cc2)ccc1-n1c(C)nc2c(C(F)(F)F)cccc21` [Example 100, 2-methyl-1-{2-methyl-4-[4-(methylsulfonyl)phenoxy]phenyl}-4-(trifluoromethyl)-1H-benzimidazole] are 12000 nM and 1310 nM.
Turning to `Cc1cc(Oc2cc(F)cc(S(C)(=O)=O)c2)ccc1-n1c(C)nc2c(C(F)(F)F)cccc21` [Example 101, 1-{4-[3-fluoro-5-(methylsulfonyl)phenoxy]-2-methylphenyl}-2-methyl-4-(trifluoromethyl)-1H-benzimidazole], the IC50 at human LXRα worked out at 4830 nM; at human LXRβ it was 405 nM.
Turning to `Cc1nc2c(C(F)(F)F)cccc2n1-c1ccc(Oc2cccc(S(C)(=O)=O)c2)cc1Cl` [Example 102, 1-{2-chloro-4-[3-(methylsulfonyl)phenoxy]phenyl}-2-methyl-4-(trifluoromethyl)-1H-benzimidazole], the 50% inhibitory concentration (IC50) on human LXRα is 1960 nM; on human LXRβ, 304 nM.
Turning to `Cc1nc2c(C(F)(F)F)cccc2n1-c1ccc(Oc2cc(F)cc(S(C)(=O)=O)c2)cc1Cl` [Example 103, 1-{2-chloro-4-[3-fluoro-5-(methylsulfonyl)phenoxy]phenyl}-2-methyl-4-(trifluoromethyl)-1H-benzimidazole], the values for the IC50 on human LXRα and on human LXRβ were 2670 nM and 235 nM, respectively.
The corresponding values for `CS(=O)(=O)c1cccc(Oc2ccc(-n3cnc4c(C(F)(F)F)cccc43)c(Cl)c2)c1` [Example 104, 1-{2-chloro-4-[3-(methylsulfonyl)phenoxy]phenyl}-4-(trifluoromethyl)-1H-benzimidazole] are 2580 nM and 479 nM.
The corresponding values for `CCS(=O)(=O)c1cccc(Oc2ccc(-n3cnc4c(C(F)(F)F)cccc43)c(Cl)c2)c1` [Example 105, 1-{2-chloro-4-[3-(ethylsulfonyl)phenoxy]phenyl}-4-(trifluoromethyl)-1H-benzimidazole] are 2710 nM and 357 nM.
The corresponding values for `CS(=O)(=O)c1cc(F)cc(Oc2ccc(-n3cnc4c(C(F)(F)F)cccc43)c(Cl)c2)c1` [Example 106, 1-{2-chloro-4-[3-fluoro-5-(methylsulfonyl)phenoxy]phenyl}-4-(trifluoromethyl)-1H-benzimidazole] are 3990 nM and 1230 nM.

Usually IC50 stands for the concentration that inhibits the measured activity by half.

Values taken from patent US20110034526A1, “Benzimidazole Compounds” (Wyeth LLC, priority 2007, published 2011).
